This is an account of results in patent US20220062243A1, “P14-Kinase Inhibitors with Anti-Cancer Activity” (The Board of Trustees of the Leland Stanford Junior …, priority 2019, published 2022).

Structures are written as SMILES.

The term IC50 denotes the concentration that inhibits the measured activity by half.

Chain of PI4K-IIIβ (Q9UBF8 whole entry): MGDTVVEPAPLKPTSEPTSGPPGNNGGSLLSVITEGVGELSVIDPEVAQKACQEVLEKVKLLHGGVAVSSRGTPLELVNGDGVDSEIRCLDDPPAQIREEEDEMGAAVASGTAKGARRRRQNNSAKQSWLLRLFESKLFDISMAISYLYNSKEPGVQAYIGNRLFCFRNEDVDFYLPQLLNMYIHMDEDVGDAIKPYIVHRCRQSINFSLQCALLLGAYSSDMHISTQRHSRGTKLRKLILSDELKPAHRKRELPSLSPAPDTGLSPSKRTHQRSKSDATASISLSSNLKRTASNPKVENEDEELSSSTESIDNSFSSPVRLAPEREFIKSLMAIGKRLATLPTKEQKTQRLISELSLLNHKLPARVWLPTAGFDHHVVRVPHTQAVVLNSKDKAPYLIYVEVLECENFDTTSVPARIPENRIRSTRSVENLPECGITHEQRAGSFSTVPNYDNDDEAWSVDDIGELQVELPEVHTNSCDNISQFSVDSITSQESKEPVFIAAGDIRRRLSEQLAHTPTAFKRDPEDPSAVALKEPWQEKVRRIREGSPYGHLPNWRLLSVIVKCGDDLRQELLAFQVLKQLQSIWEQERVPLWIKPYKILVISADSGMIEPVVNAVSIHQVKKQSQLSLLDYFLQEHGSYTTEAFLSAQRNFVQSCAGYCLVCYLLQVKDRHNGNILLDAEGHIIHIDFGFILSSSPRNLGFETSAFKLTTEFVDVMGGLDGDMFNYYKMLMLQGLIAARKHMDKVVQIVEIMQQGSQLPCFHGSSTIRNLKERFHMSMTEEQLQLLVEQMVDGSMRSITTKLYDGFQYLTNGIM

The target of this assay is PI4K-IIIβ (Homo sapiens, UniProt Q9UBF8). In words: PI-kinase assay (membrane capture assay for lipid kinase activity), PI4KIIIβ. The format is biochemical. The conditions noted are these: read-out: PI4KIIIβ kinase activity (IC50 class). The protocol:
PI4-kinase inhibition can be determined by a kinase activity assay, e.g., by an assay that determines the level of incorporation of radiolabeled phosphate from [γ-^32P]-ATP into a substrate molecule after treatment with a subject compound, relative to a control, by measuring the beta-particle emission rate using a scintillation counter or phosphorimaging.
PI-kinase assay: Compounds are tested in C.1.1. PI kinase assays as described by Shokat et al., “A membrane capture assay for lipid kinase activity.” Nat. Protoc. […] Selected compounds of Table 1 and 2 were prepared and tested for inhibition activity in a variety of kinase assays.
`COc1ccc(-c2sc(N[C@H](C)C3CCCCC3)nc2C)cc1S(=O)(=O)N[C@H]1CC[C@H](O)CC1` [Compound S-193, 5-[2-[[(1R)-1-cyclohexylethyl]amino]-4-methyl-thiazol-5-yl]-N-(4-hydroxycyclohexyl)-2-methoxy-benzenesulfonamide]: the IC50 was less than 0.1 µM.
As for `COc1ncc(-c2sc(NC(=O)CC3CCOCC3)nc2C)cc1S(=O)(=O)Nc1ccc(F)cc1F` [Compound S-258], the IC50 lay in the range of 1 to 10 µM.
As for `COc1ccc(-c2sc(NC(=O)CC3CCOCC3)nc2C)cc1S(=O)(=O)Nc1cc(C)cc(O)c1` [Compound S-169, N-[5-[3-[(3-hydroxy-5-methyl-phenyl)sulfamoyl]-4-methoxy-phenyl]-4-methyl-thiazol-2-yl]-2-tetrahydropyran-4-yl-acetamide], the figure is less than 0.1 µM; as for `COc1ccc(-c2sc(NC(C)(C)C)nc2C)cc1S(=O)(=O)N[C@H]1CC[C@H](O)CC1` [Compound S-216, 5-[2-(tert-butylamino)-4-methyl-thiazol-5-yl]-N-(4-hydroxycyclohexyl)-2-methoxy-benzenesulfonamide], less than 0.1 µM; as for `COc1ccc(-c2sc(N[C@H](C)C3CCCCC3)nc2C)cc1S(=O)(=O)NC1CCNCC1` [Compound S-147, 5-[2-[[(1R)-1-cyclohexylethyl]amino]-4-methyl-thiazol-5-yl]-2-methoxy-N-(4-piperidyl)benzenesulfonamide], less than 0.1 µM.
The value for `COc1ccc(-c2sc(NC(=O)C3CCCC3)nc2C)cc1S(=O)(=O)N[C@H]1CC[C@H](O)CC1` [Compound S-9, N-[5-[3-[(4-hydroxycyclohexyl)sulfamoyl]-4-methoxy-phenyl]-4-methyl-thiazol-2-yl]cyclopentanecarboxamide] was less than 0.1 µM.
As for `COc1ccc(-c2sc(NC(=O)CC3CCCC3)nc2C)cc1S(=O)(=O)Nc1ccc(O)cc1` [Compound S-1, 2-cyclopentyl-N-[5-[3-[(4-hydroxyphenyl)sulfamoyl]-4-methoxy-phenyl]-4-methyl-thiazol-2-yl]acetamide], the figure is less than 0.1 µM.
Regarding `COc1ccc(-c2sc(N[C@@H](C)C3CCCCC3)nc2C)cc1S(=O)(=O)N[C@H]1CC[C@H](O)CC1` [Compound S-183, 5-[2-[[(1S)-1-cyclohexylethyl]amino]-4-methyl-thiazol-5-yl]-N-(4-hydroxycyclohexyl)-2-methoxy-benzenesulfonamide], the IC50 is less than 0.1 µM.
For `COc1ccc(-c2sc(NC(=O)CC3CCOCC3)nc2C)cc1S(=O)(=O)Nc1ccccc1F` [Compound S-230, N-[5-[3-[(2-fluorophenyl)sulfamoyl]-4-methoxy-phenyl]-4-methyl-thiazol-2-yl]-2-tetrahydropyran-4-yl-acetamide], the IC50 is less than 0.1 µM.
The value for `COc1ccc(-c2sc(NC3CCCCCC3)nc2C)cc1S(=O)(=O)Nc1c(C)cccc1C` [Compound S-98, 5-[2-(cycloheptylamino)-4-methyl-thiazol-5-yl]-N-(2,6-dimethylphenyl)-2-methoxy-benzenesulfonamide;2,2,2-trifluoroacetic acid] was less than 0.1 µM; that for `COc1ccc(-c2sc(NCC3CCCCC3)nc2C)cc1S(=O)(=O)NC1CC1` [Compound S-127, 5-[2-(cyclohexylmethylamino)-4-methyl-thiazol-5-yl]-N-cyclopropyl-2-methoxy-benzenesulfonamide] was 0.1 to 1 µM.
As for `COc1ncc(-c2sc(NC(=O)CC3CCOCC3)nc2C)cc1S(=O)(=O)NC1CCCC(O)C1` (stereo not shown) [Compound S-263], the figure is less than 0.1 µM; as for `COc1ccc(-c2sc(NC3CCCCC3)nc2C)cc1S(=O)(=O)N[C@H]1CC[C@H](O)CC1` [Compound S-166, 5-[2-(cyclohexylamino)-4-methyl-thiazol-5-yl]-N-(4-hydroxycyclohexyl)-2-methoxy-benzenesulfonamide], less than 0.1 µM; as for `COc1ccc(-c2sc(NC(=O)CCC3CCCC3)nc2C)cc1S(=O)(=O)N[C@H]1CC[C@H](O)CC1` [Compound S-156, 3-cyclopentyl-N-[5-[3-[(4-hydroxycyclohexyl)sulfamoyl]-4-methoxy-phenyl]-4-methyl-thiazol-2-yl]propanamide], less than 0.1 µM.
The value for `COc1ccc(-c2sc(NC(C)(C)C)nc2C)cc1S(=O)(=O)NC1CCCC(O)C1` (stereo not shown) [Compound S-218, 5-[2-(tert-butylamino)-4-methyl-thiazol-5-yl]-N-(3-hydroxycyclohexyl)-2-methoxy-benzenesulfonamide] was less than 0.1 µM.
Consider `COc1ccc(-c2sc(NCC3CCCCC3)nc2C)cc1S(=O)(=O)NC1CCN(C(C)C)CC1` [Compound S-134, 5-[2-(cyclohexylmethylamino)-4-methyl-thiazol-5-yl]-N-(1-isopropyl-4-piperidyl)-2-methoxy-benzenesulfonamide], for which the IC50 is less than 0.1 µM.
As for `COc1ccc(-c2sc(NC(=O)CCC3CCCC3)nc2C)cc1S(=O)(=O)NC1CCNCC1` [Compound S-160, 3-cyclopentyl-N-[5-[4-methoxy-3-(4piperidylsulfamoyl)phenyl]-4-methyl-thiazol-2-yl]propanamide], the figure is less than 0.1 µM.
Take `COc1ncc(-c2sc(NC(=O)CC3CCOCC3)nc2C)cc1S(=O)(=O)Nc1ccc(O)cc1` [Compound S-261]: the IC50 is less than 0.1 µM.
The value for `COc1ccc(-c2sc(N[C@H](C)C3CCCCC3)nc2C)cc1S(=O)(=O)NC1CCCNC1` (stereo partly drawn) [Compound S-148, 5-[2-[[(1R)-1-cyclohexylethyl]amino]-4-methyl-thiazol-5-yl]-2-methoxy-N-(3-piperidyl)benzenesulfonamide] was less than 0.1 µM; that for `COc1ncc(-c2sc(NC(=O)CC3CCOCC3)nc2C)cc1S(=O)(=O)N[C@H]1CC[C@@H](O)CC1` [Compound S-262] was less than 0.1 µM; that for `COc1ncc(-c2sc(NC(=O)CC3CCOCC3)nc2C)cc1S(=O)(=O)Nc1cccc(C(=O)O)c1` [Compound S-265] was less than 0.1 µM.
As for `COc1ccc(-c2sc(NCCC3CCCCC3)nc2C)cc1S(=O)(=O)NC1CCC(O)C1` (stereo not shown) [Compound S-214, 5-[2-(2-cyclohexylethylamino)-4-methyl-thiazol-5-yl]-N-(3-hydroxycyclopentyl)-2-methoxy-benzenesulfonamide], the figure is 0.1 to 1 µM.
As for `COc1ccc(-c2sc(NC(=O)CC3CCCC3)nc2C)cc1S(=O)(=O)NCCCCO` [Compound S-152], the figure is less than 0.1 µM; as for `COc1ccc(-c2sc(NC3CCCCC3)nc2C)cc1S(=O)(=O)NC1CCCCCC1` [Compound S-131, N-cycloheptyl-5-[2-(cyclohexylamino)-4-methyl-thiazol-5-yl]-2-methoxy-benzenesulfonamide], 0.1 to 1 µM.
For `COc1ccc(-c2sc(NC3CCCCC3)nc2C)cc1S(=O)(=O)NC1CCCC1` [Compound S-129, 5-[2-(cyclohexylamino)-4-methyl-thiazol-5-yl]-N-cyclopentyl-2-methoxy-benzenesulfonamide], the IC50 lay within 0.1 to 1 µM.
As for `COc1ccc(-c2sc(NC(=O)CC3CCOCC3)nc2C)cc1S(=O)(=O)Nc1ccc(O)cc1` [Compound S-227, N-[5-[3-[(4-hydroxyphenyl)sulfamoyl]-4-methoxy-phenyl]-4-methyl-thiazol-2-yl]-2-tetrahydropyran-4-yl-acetamide], the figure is less than 0.1 µM; as for `COc1ccc(-c2sc(NCC(C)C)nc2C)cc1S(=O)(=O)NC1CCCC(O)C1` (stereo not shown) [Compound S-223, N-(3-hydroxycyclohexyl)-5-[2-(isobutylamino)-4-methyl-thiazol-5-yl]-2-methoxy-benzenesulfonamide;2,2,2-trifluoroacetic acid], less than 0.1 µM.
In the case of `COc1ccc(-c2sc(NCC3CCCCC3)nc2C)cc1S(=O)(=O)NCC1CCCCC1` [Compound S-128, N-(cyclohexylmethyl)-5-[2-(cyclohexylmethylamino)-4-methyl-thiazol-5-yl]-2-methoxy-benzenesulfonamide], the IC50 lay within 0.1 to 1 µM.
As for `Cc1ccc(-c2sc(NC(=O)CC3CCCC3)nc2C)cc1S(=O)(=O)NC1CCNCC1` [Compound S-188, 2-cyclopentyl-N-[4-methyl-5-[4-methyl-3-(4-piperidylsulfamoyl)phenyl]thiazol-2-yl]acetamide], the figure is less than 0.1 µM; as for `COc1ccc(-c2sc(NCCC3CCCCC3)nc2C)cc1S(=O)(=O)NC1CCNCC1` [Compound S-202, 5-[2-(2-cyclohexylethylamino)-4-methyl-thiazol-5-yl]-2-methoxy-N-(4-piperidyl)benzenesulfonamide], less than 0.1 µM; as for `COc1ccc(-c2sc(NCC3CCCCC3)nc2C)cc1S(=O)(=O)NC1CCN(C2CC2)CC1` [Compound S-135, 5-[2-(cyclohexylmethylamino)-4-methyl-thiazol-5-yl]-N-(1-cyclopropyl-4-piperidyl)-2-methoxy-benzenesulfonamide], less than 0.1 µM.
As for `COc1ccc(-c2sc(NC(=O)CC3CCCC3)nc2C)cc1S(=O)(=O)N[C@H]1CC[C@H](O)CC1` [Compound S-151, 2-cyclopentyl-N-[5-[3-[(4-hydroxycyclohexyl)sulfamoyl]-4-methoxy-phenyl]-4-methyl-thiazol-2-yl]acetamide], the figure is less than 0.1 µM; as for `COc1ccc(-c2sc(NC(=O)CC3CCOCC3)nc2C)cc1S(=O)(=O)Nc1cccc(C)c1` [Compound S-226, N-[5-[4-methoxy-3-(m-tolylsulfamoyl)phenyl]-4-methyl-thiazol-2-yl]-2-tetrahydropyran-4-yl-acetamide], less than 0.1 µM.
As for `COc1ccc(-c2sc(NCC(C)C)nc2C)cc1S(=O)(=O)N[C@H]1CC[C@H](O)CC1` [Compound S-221, N-(4-hydroxycyclohexyl)-5-[2-(isobutylamino)-4-methyl-thiazol-5-yl]-2-methoxy-benzenesulfonamide], the figure is less than 0.1 µM.
